Here are results for 2 compounds from US20150094283A1, “COMBINATION” (GlaxoSmithKline LLC, priority 2010, published 2015).

The experiment has as its system SKOV3 tumor xenografts (human ovarian carcinoma). Kind of experiment: Growth of SKOV3 tumor xenografts in SCID mice (tumor growth inhibition). It is filed as in vivo. The settings on record: PO, compared to vehicle treated mice. Here is the method:
Female SCID mice were implanted subcutaneously with 5×10^6 SKOV3 cells (human ovarian carcinoma). When the tumor volume reached 300-400 mm^3, mice were block randomized to different treatment groups (n=8 mice/group). Mice received the AKT inhibitor, Compound C as the free base, at 10 or 30 mg/kg, once daily (SID) for 21 days in 20% PEG-400, 1% DMSO in water. The VEGFR inhibitor, Compound A as the monohydrochloride salt, was administered at 100 mg/kg, twice/day (BID) for 21 days either alone or in combination with the AKT inhibitor. Mice were weighed and tumors measured by calipers twice weekly. Tumor volumes were calculated using the formula: tumor volume=(Length×Width^2)/2. The percentage of tumor growth inhibition was calculated on each day of tumor measurement using the formula: 100×[1−(average growth of the compound-treated tumors/average growth of vehicle-treated control tumors)]. Data is plotted as mean±sem for tumor volume for each group.

Turning to `Cc1ccc(Nc2nccc(N(C)c3ccc4c(C)n(C)nc4c3)n2)cc1S(N)(=O)=O` [Compound A, 5-[[4-[(2,3-dimethyl-2H-indazol-6-yl)methylamino]-2-pyrimidinyl]amino]-2-methylbenzenesulfonamide, reference compound], the “Tumor Growth Inhibition” value (Compound A (monohydrochloride salt) 100 mg/kg, BID x21 d, 100 mg/kg) is reported as 47%. On to `Cn1ncc(Cl)c1-c1cc(C(=O)N[C@H](CN)Cc2ccc(F)c(F)c2)oc1Cl` [Compound C, N-{(1S)-2-amino-1-[(3,4-difluorophenyl)methyl]ethyl}-5-chloro-4-(4-chloro-1-methyl-1H-pyrazol-5-yl)-2-furancarboxamide], for which the “Tumor Growth Inhibition” value is, setting by setting: (Compound C (free base) 10 mg/kg, SID x21 d, 10 mg/kg) 86%; (Compound C (free base) 30 mg/kg, SID x21 d, 30 mg/kg) 67%.
